{"source": "patent US20180169108A1", "about": "“Drug Combinations For the Treatment of HIV” (The Johns Hopkins University, priority 2015, published 2018)", "key": {"[1]": {"tested_on": "HIV-1 (latent, in resting CD4+ T cells from infected individuals)", "conditions": "earlier study of the inventors (32); cited from earlier work"}, "[2]": {"tested_on": "HIV-1 (latent, in resting CD4+ T cells from infected individuals)", "format": "cell-based", "conditions": "for virus release into supernatant (in words): 24 hours of treatment; for ρ, median fold change in supernatant HIV-1 mRNA versus DMSO control observed in the ex vivo assay: lower bound, as no virion production was detectable for DMSO", "method": "Production and release of HIV-1 virions by LRA-treated rCD4s indicates complete reversal of latency in those cells. To assess whether combinations of LRAs induced rapid virus release, HIV-1 mRNA were measured in the culture supernatants of LRA-treated rCD4s from infected individuals on suppressive ART using an RT-qPCR assay previously shown to provide sensitive and accurate quantitation of HIV-1 virion production (45). […] The Bliss independence model was applied to quantitate interactions between LRAs.\n(§1) The final DMSO percentage was 0.2% (v/v) for all single and combination treatments. Concentrations were chosen based on previous ex vivo studies with rCD4s from infected individuals as well as studies using in vitro latency models (13, 28, 29, 32-34) with the aim of selecting clinically relevant concentrations.\nHIV-1 mRNA was extracted from 0.25 mL of supernatant from the LRA-treated cell cultures described above with 0.75 mL of TRIzol® LS Reagent (Invitrogen) according to the manufacturer's protocol. cDNA synthesis and real-time quantitative PCR was performed as described (32). […] The limit of detection for each qPCR was 10 copies per reaction, which scaled to a limit of detection of 150 copies per mL of culture supernatant. Primers and probes are listed below. Molecular standard curve was generated as described above.\n(§2) The Bliss independence model, one method to predict the expected combined effects of multiple drugs assuming the drugs act through independent mechanisms, as a metric by which to evaluate the latency reversing activity of drug combinations was used. The Bliss independence model is defined by the equation:\n(§3) If Dfaxy=0, then the drug combination follows the Bliss model for independent action. […] In this analysis, the fraction affected was calculated as follows for intracellular HIV-1 mRNA and for supernatant HIV-1 virion quantitation:\n(§4) fax=(copies drug X−copies DMSO control)/(copies PMA/I−copies DMSO control)"}, "[3]": {"tested_on": "HIV-1 (latent, in resting CD4+ T cells from infected individuals)", "description": "as §1, §2, §3, §4"}, "[4]": {"conditions": "continuous infusion for 14 or 21 days; cited from earlier work"}, "[5]": {"conditions": "cancer patients; cited from earlier work"}, "[6]": {"tested_on": "HIV-1", "conditions": "patients on ART; cited from earlier work"}, "[7]": {"tested_on": "HIV-1 (latent, in resting CD4+ T cells from infected individuals)", "conditions": "earlier study (32); cited from earlier work"}}, "data": [{"smiles": "Cc1sc2c(c1C)C(c1ccc(Cl)cc1)=N[C@@H](CC(=O)OC(C)(C)C)c1nnc(C)n1-2", "note": "[JQ1]", "values": [{"measurement": "latency reversal in rCD4s from infected individuals (in words)", "setting": "[1]", "result": "only minimally active"}]}, {"smiles": "CCC/C=C/C=C/C(=O)O[C@H]1/C(=C/C(=O)OC)C[C@H]2C[C@H]([C@@H](C)O)OC(=O)C[C@H](O)C[C@@H]3C[C@H](OC(C)=O)C(C)(C)[C@](O)(C[C@@H]4C/C(=C/C(=O)OC)C[C@H](/C=C/C(C)(C)[C@]1(O)O2)O4)O3", "note": "[bryostatin-1]", "values": [{"measurement": "virus release into supernatant (in words)", "setting": "[2]", "result": "significant virus release"}, {"measurement": "ρ, median fold change in supernatant HIV-1 mRNA versus DMSO control observed in the ex vivo assay", "setting": "[2]", "result": 120}, {"measurement": "intracellular HIV-1 mRNA induction relative to the maximum reactivation elicited by T cell activation", "setting": "[1]", "result": "four"}, {"measurement": "induction of intracellular HIV-1 mRNA (significance, in words)", "setting": "[3]; 1 nM bryostatin-1", "result": "did not induce significant intracellular HIV-1 mRNA"}, {"measurement": "mean increase in intracellular HIV-1 mRNA, fold induction relative to DMSO control", "setting": "[3]; rCD4s from infected individuals on ART, 24 h, 10 nM bryostatin-1, 300 nM prostratin, 40 nM romidepsin, 50 ng/mL PMA + 1 μM ionomycin", "result": 12.8, "unit": "fold"}, {"measurement": "approximated maximally tolerated dose", "setting": "[4]", "result": "~16", "unit": "μg/m2/day"}, {"measurement": "clinical tolerability (in words)", "setting": "[5]", "result": "dose limiting toxicities grade 3/4 myalgia, arthralgia, and weakness"}]}, {"smiles": "CC(=O)O[C@@]12C[C@@H](C)[C@@]3(O)[C@@H](C=C(CO)C[C@]4(O)C(=O)C(C)=C[C@@H]34)[C@@H]1C2(C)C", "note": "[prostratin]", "values": [{"measurement": "virus release into supernatant (in words)", "setting": "[2]", "result": "significant virus release"}, {"measurement": "ρ, median fold change in supernatant HIV-1 mRNA versus DMSO control observed in the ex vivo assay", "setting": "[2]", "result": 209}]}, {"smiles": "C/C=C1\\NC(=O)[C@H]2CSSCC/C=C/[C@H](CC(=O)N[C@H](C(C)C)C(=O)N2)OC(=O)[C@H](C(C)C)NC1=O", "note": "[romidepsin]", "values": [{"measurement": "ρ, median fold change in supernatant HIV-1 mRNA versus DMSO control observed in the ex vivo assay", "setting": "[2]", "result": 15}]}, {"smiles": "O=C(CCCCCCC(=O)Nc1ccccc1)NO", "note": "[vorinostat]", "values": [{"measurement": "latency reversal in rCD4s from infected individuals (in words)", "setting": "[1]", "result": "only minimally active"}, {"measurement": "increase in plasma HIV-1 RNA using quantitative clinical assays (in words)", "setting": "[6]", "result": "no increases in plasma HIV-1 RNA"}, {"measurement": "viral production ex vivo (in words)", "setting": "[7]", "result": "fail to stimulate detectable viral production"}]}]}
